Source: the Deep4Chem optical property database

Experiment: solvent given as SMILES

Compound `CC1=CC(/C=C/c2ccc(C)cc2)=[N+]2C1=C(c1ccccc1)c1c(C)cc(/C=C/c3ccc(C)cc3)n1[B-]2(F)F` has an emission maximum (in CC1CCCO1) of 645 nm.
Compound `CCCCCCCCOc1ccc(C#Cc2c3cc4ccccc4cc3c(C#C[Si](C(C)C)(C(C)C)C(C)C)c3cc4ccccc4cc23)cc1` has an emission maximum (in ClCCl) of 666 nm.
In the case of `COC(=O)c1nc2c(N(C)C)nc(N)nc2n1Cc1ccccc1`, the emission maximum (in C1COCCO1) is reported as 391 nm, the emission maximum (in CC#N) is reported as 399 nm and the emission maximum (in CO) is reported as 420 nm. It also gave an emission maximum (in ClCCl) of 393 nm.
For `COc1ccc(/C=C/C2=NC(=C\c3ccncc3)/C(=O)N2C)cc1`, the emission maximum (in C1COCCO1) was 564 nm, the emission maximum (in CC#N) was 574 nm and the emission maximum (in CCO) was 570 nm. It also gave an emission maximum (in CCOC(C)=O) of 566 nm and an emission maximum (in O) of 577 nm.
Compound `CC1(C)c2ccccc2N(c2ccc(-c3ccc(C#N)cn3)cc2)c2ccccc21` has an emission maximum (in Cc1ccccc1) of 504 nm and an emission maximum (in N#Cc1ccc2c(c1)c1ccccc1n2-c1cccc(-n2c3ccccc3c3ccccc32)c1) of 495 nm.
`O=S1(=O)c2ccc(-c3ccc(N(c4ccccc4)c4ccccc4)cc3)cc2C2(c3ccccc3-c3ccccc32)c2cc(-c3ccc(N(c4ccccc4)c4ccccc4)cc3)ccc21` gave an emission maximum (in CC(C)=O) of 477.11 nm, an emission maximum (in CCCCCC) of 398.37 nm and an emission maximum (in CN(C)C=O) of 491.2 nm. It also gave an emission maximum (in Cc1ccccc1) of 425.46 nm and an emission maximum (in ClCCl) of 465 nm.
`CC(=O)Nc1ccc2c3c(cccc13)C(=O)c1ccccc1-2` gave an emission maximum (in CC#N) of 539.96 nm, an emission maximum (in CC(C)=O) of 526.04 nm and an emission maximum (in CC(C)O) of 567.86 nm. For the same compound, the emission maximum (in CCCCOCCCC) was 507.1 nm, the emission maximum (in CCOC(C)=O) was 520.02 nm and the emission maximum (in CCOCC) was 518.13 nm. For the same compound, the emission maximum (in CO) was 573.07 nm, the emission maximum (in Cc1ccccc1) was 516 nm and the emission maximum (in Clc1ccccc1) was 520.02 nm. For the same compound, the emission maximum (in N#Cc1ccccc1) was 527.98 nm and the emission maximum (in O=C1CCCCC1) was 526.87 nm.
With `Nc1ccc2ccc(O)cc2c1` the emission maximum (in O) was 398 nm.
In the case of `O=C(c1ccc(/C(=C(/c2ccccc2)c2ccc(C(=O)c3ccc(-n4c5ccccc5c5ccccc54)cc3)cc2)c2ccccc2)cc1)c1ccc(-n2c3ccccc3c3ccccc32)cc1`, the emission maximum (in C1CCOC1) is reported as 502 nm.
For `CCCCCCOc1ccc(N(c2ccc(OCCCCCC)cc2)c2ccc(-c3sc(-c4ccc(N(c5ccc(OCCCCCC)cc5)c5ccc(OCCCCCC)cc5)cc4)c4nc(-c5ccccc5)c(-c5ccccc5)nc34)cc2)cc1`, the emission maximum (in C1CCOC1) was 770 nm, the emission maximum (in CC(C)=O) was 793 nm and the emission maximum (in CCOC(C)=O) was 768 nm. For the same compound, the emission maximum (in CCOCC) was 751 nm, the emission maximum (in CN(C)C=O) was 806 nm and the emission maximum (in Cc1ccccc1) was 748 nm. For the same compound, the emission maximum (in ClC(Cl)Cl) was 777 nm and the emission maximum (in ClCCl) was 793 nm.
Compound `CCC1(CC)c2cc(B(c3c(C)cc(C)cc3C)c3c(C)cc(C)cc3C)ccc2-c2ccc(N(c3ccccc3)c3ccc4c(c3)C(CC)(CC)c3cc(B(c5c(C)cc(C)cc5C)c5c(C)cc(C)cc5C)ccc3-4)cc21` has an emission maximum (in C1CCOC1) of 490 nm, an emission maximum (in CC#N) of 538 nm and an emission maximum (in CC(C)=O) of 515 nm. The emission maximum (in CCCCCC) was 445 nm, the emission maximum (in CN(C)C=O) was 533 nm and the emission maximum (in Cc1ccccc1) was 461 nm. It also gave an emission maximum (in ClC(Cl)Cl) of 477 nm.
Work on `N#C/C(=N/Nc1ccc(C#N)cc1)c1nc(-c2ccccc2)cs1` yielded an emission maximum (in CCO) of 486 nm, an emission maximum (in Cc1ccccc1) of 490 nm and an emission maximum (in ClCCl) of 492 nm.
In the case of `CC1=CC(C)=[N+]2C1=Cc1c3ccccc3c(C#Cc3ccccc3)n1[B-]2(F)F`, the emission maximum (in CCCCCC) is reported as 615 nm, the emission maximum (in CCCCCCCCO) is reported as 623 nm and the emission maximum (in CCOC(C)=O) is reported as 618 nm. For the same compound, the emission maximum (in CN(C)C=O) was 624 nm and the emission maximum (in ClCCl) was 629 nm.
Compound `Cc1cc2c(ccc3c(C)[n+](C)c(C)cc32)c(C)[n+]1C` has an emission maximum (in CC#N) of 424 nm.
For `Cc1cccc(Nc2ccccc2C(=O)O)c1C`, the emission maximum (in C1CCCCC1) was 438 nm, the emission maximum (in C1CCOC1) was 438 nm and the emission maximum (in C1COCCO1) was 437 nm. The emission maximum (in CC#N) was 398 nm, the emission maximum (in CCOC(C)=O) was 439 nm and the emission maximum (in CN(C)C=O) was 385 nm. The emission maximum (in CO) was 390 nm and the emission maximum (in ClC(Cl)Cl) was 442 nm.
`N#Cc1c(-n2c3ccc(Br)cc3c3cc(Br)ccc32)c(-n2c3ccc(Br)cc3c3cc(Br)ccc32)c(C#N)c(-n2c3ccc(Br)cc3c3cc(Br)ccc32)c1-n1c2ccc(Br)cc2c2cc(Br)ccc21` showed an emission maximum (in Cc1ccccc1) of 546 nm.
With `c1ccc2c(c1)c1ccccc1c1[nH]c(-c3ccc(-c4nc5c6ccccc6c6ccccc6c5[nH]4)cc3)nc21` the emission maximum (in C1CCOC1) was 456 nm, the emission maximum (in CC#N) was 462 nm and the emission maximum (in CCO) was 461 nm. For the same compound, the emission maximum (in CS(C)=O) was 430 nm and the emission maximum (in ClCCl) was 465 nm.
Compound `CCCCCn1c2ccc(S(=O)(=O)O)cc2c(=O)c2cc(S(=O)(=O)O)ccc21` has an emission maximum (in CS(C)=O) of 421 nm and an emission maximum (in O) of 431 nm.
In the case of `Cc1c2c(c(C)c3ccccc13)-c1cc3nc4ccccc4nc3cc1-2`, the emission maximum (in ClC(Cl)Cl) is reported as 454 nm.
`CCCCCCCCCCCCNc1cccc2[n+]1[B-](F)(F)n1c(c3cccc4cccc1c43)=N2` showed an emission maximum (in C1CCOC1) of 523 nm, an emission maximum (in CC#N) of 519 nm and an emission maximum (in CCCCCC) of 509 nm. It also gave an emission maximum (in Cc1ccccc1) of 529 nm and an emission maximum (in ClCCl) of 522 nm.
Work on `COc1ccc(-c2nc3c([nH]2)C2=CC(=O)S[C@]2(C)[C@@]2(C)SC(=O)C=C32)cc1` yielded an emission maximum (in CC#N) of 533 nm.
With `Cc1cc2c3ccccc3oc2c2[nH]c3ccccc3c12` the emission maximum (in ClCCl) was 353 nm.
In the case of `CCOC(=O)c1c(-c2cc3cc(OC)ccc3oc2=O)nn(-c2cccc(Cl)c2)c1C(=O)OCC`, the emission maximum (in ClCCl) is reported as 445 nm.
`c1cc2cc(c1)c1cccc(c1)c1cccc(c1)c1cccc(c1)c1cccc(c1)c1cccc2c1` gave an emission maximum (in ClC(Cl)Cl) of 337 nm.
`c1ccc(N(c2ccccc2)c2c3ccccc3c(N(c3ccccc3)c3ccccc3)c3ccccc23)cc1` gave an emission maximum (in Cc1ccccc1) of 510 nm.
Work on `N#Cc1ccc(-c2cc(-c3ccc(N4CCCC4)cc3)nc(-c3ccccc3)n2)cc1` yielded an emission maximum (in ClC(Cl)Cl) of 518 nm.
Compound `FC(F)(F)c1ccc(-c2pc3ccccc3s2)cc1` (stereo not drawn) has an emission maximum (in CC#N) of 430 nm.
Work on `O=S1(=O)c2ccc(-c3ccc4c(c3)c3ccccc3n4-c3ccccc3)cc2C2(c3cc(-c4ccc5c(c4)c4ccccc4n5-c4ccccc4)ccc31)c1cc(-c3ccc4c(c3)c3ccccc3n4-c3ccccc3)ccc1S(=O)(=O)c1ccc(-c3ccc4c(c3)c3ccccc3n4-c3ccccc3)cc12` yielded an emission maximum (in CC1CCCO1) of 413 nm.
Compound `CCOC(=O)CC[N+]1=c2cc3c(cc2CCC1)=Cc1c(c2cc4c5c(c2oc1=O)CCCN5CCC4)O3` has an emission maximum (in CC#N) of 687 nm, an emission maximum (in CO) of 681 nm and an emission maximum (in ClCCl) of 676 nm. The emission maximum (in O) was 688 nm.
Compound `CCC1=C(C)C2=C(c3c4ccccc4c(C)c4ccccc34)c3c(C)c(CC)c(C)n3[B-](F)(F)[N+]2=C1C` has an emission maximum (in CC#N) of 538 nm, an emission maximum (in CCCCCC) of 540 nm and an emission maximum (in CCO) of 538 nm. For the same compound, the emission maximum (in CN(C)C=O) was 540 nm, the emission maximum (in Cc1ccccc1) was 544 nm and the emission maximum (in ClCCl) was 543 nm.
Compound `COc1ccc(-c2cc3c(cc2OC)-c2c(c4c(c5c2-c2cc(OC)c(-c6ccc(OC)cc6)cc2C5)C(=O)N(CCC(C)C)C4=O)C3)cc1` has an emission maximum (in C1CCOC1) of 493 nm.
Compound `c1ccc(-c2cnc3nn4ccccc4c3c2)cc1` has an emission maximum (in C1CCOC1) of 415 nm.
With `COc1cc(/C=C/c2ccncc2)c(OC)cc1C=O` the emission maximum (in C1CCOC1) was 448 nm, the emission maximum (in CC#N) was 465 nm and the emission maximum (in CN(C)C=O) was 463 nm. It also gave an emission maximum (in Cc1ccccc1) of 446 nm and an emission maximum (in ClCCl) of 460 nm.
In the case of `COc1ccc(-c2c3ccc(=[N+]4CCCCC4)cc-3oc3cc(N4CCCCC4)ccc23)cc1`, the emission maximum (in CCO) is reported as 582 nm and the emission maximum (in ClCCl) is reported as 582 nm.
`CCc1c(C)c2n(c1C)[B-](F)(F)[N+]1=C(c3ccc[nH]3)c3ccccc3C1=C2` gave an emission maximum (in C1CCOC1) of 631 nm, an emission maximum (in CC#N) of 628 nm and an emission maximum (in CCCCCC) of 626 nm. For the same compound, the emission maximum (in CO) was 628 nm, the emission maximum (in Cc1ccccc1) was 635 nm and the emission maximum (in ClCCl) was 634 nm.
`Cc1cc(C)c(B(c2ccc(N3c4ccccc4C(C)(C)c4ccccc43)cc2)c2c(C)cc(C)cc2C)c(C)c1` showed an emission maximum (in C1CCCCC1) of 442 nm, an emission maximum (in C1CCOC1) of 530 nm and an emission maximum (in CN(C)C=O) of 578.72 nm. It also gave an emission maximum (in Cc1ccccc1) of 484 nm and an emission maximum (in ClCCl) of 540.77 nm.
Compound `CCCCC1(CCCC)c2cc(C#Cc3ccc(/C=C(\C)c4ccccc4)cc3)ccc2-c2ccc(C#Cc3ccc(/C=C(\C)c4ccccc4)cc3)cc21` has an emission maximum (in C1CCOC1) of 403 nm.
Work on `Cc1cc2cc(C)c3c4ccccc4[nH]c3c2o1` yielded an emission maximum (in ClCCl) of 338 nm.
`Cc1cc(-c2ccccc2C)cc(C)[o+]1` showed an emission maximum (in CC#N) of 518 nm and an emission maximum (in ClCCl) of 469 nm.
`CCC1=C(C)c2cc3c(OC)cc(OC)cc3c(=O)n2C1=O` showed an emission maximum (in CC#N) of 476 nm, an emission maximum (in CO) of 510 nm and an emission maximum (in CS(C)=O) of 485 nm. For the same compound, the emission maximum (in ClC(Cl)Cl) was 469 nm.
In the case of `CC[N+]1(CC)CN2C(=N1)C(C(=O)O)=Cc1cc(Oc3ccccc3)ccc12`, the emission maximum (in O) is reported as 485 nm.
For `CCN(CC)c1ccc2cc(/C=C/c3ccccc3)c(=O)oc2c1`, the emission maximum (in CC#N) was 477 nm.
With `CCN(CC)c1ccc2cc(-c3nc4ccccc4n3C)c(=O)oc2c1` the emission maximum (in CC#N) was 480 nm.
For `CCOC(=O)c1c(-c2c(Cl)c3cc(C)ccc3oc2=O)nn(-c2cccc(C)c2)c1C(=O)OCC`, the emission maximum (in ClCCl) was 418 nm.
With `C(=C\c1c2ccccc2cc2ccccc12)/c1ccc2ccccc2c1` the emission maximum (in CC1CCCCC1) was 488 nm and the emission maximum (in CC#N) was 490 nm.
For `COC(=O)c1ccc(/C=C2\N=C(c3ccc([N+](=O)[O-])cc3)NC2=O)cc1`, the emission maximum (in C1COCCO1) was 510 nm.
`N#Cc1cc(-c2ccc(N3c4ccccc4Oc4ccccc43)cc2)c(-c2ccc(N3c4ccccc4Oc4ccccc43)cc2)cc1C#N` showed an emission maximum (in Cc1ccccc1) of 577 nm and an emission maximum (in c1cc(-c2cccc(-n3c4ccccc4c4ccccc43)c2)cc(-n2c3ccccc3c3ccccc32)c1) of 540 nm.
With `CCCCn1c2ccccc2c2ccc3c4cc(-c5ccc6ccccc6c5)ccc4n(CCCC)c3c21` the emission maximum (in ClC(Cl)Cl) was 410 nm.
For `C(=C\c1nc2ccccc2s1)/c1ccccc1`, the emission maximum (in C1CCCCC1) was 390 nm and the emission maximum (in CO) was 400 nm.
In the case of `CCCC1(CCC)c2ccccc2-c2ccccc21`, the emission maximum (in C1CCCCC1) is reported as 309 nm.
`Clc1ccc(-c2c3nc(c(-c4ccc(Cl)cc4)c4ccc([nH]4)c(-c4ccc(Cl)cc4)c4nc(c(-c5ccc(Cl)cc5)c5ccc2[nH]5)C=C4N2CCOCC2)C=C3)cc1` gave an emission maximum (in CS(C)=O) of 662 nm.
For `Cc1c2cc3c(-c4ccccc4)c4c(c(-c5ccccc5)c3cc2c2n1[B-](F)(F)[n+]1c(C)c3cc5c(-c6ccccc6)c6c7cccc8cccc(c6c(-c6ccccc6)c5cc3c1=C2c1ccccc1)c87)-c1cccc2cccc-4c12`, the emission maximum (in ClCCl) was 783 nm.
